Tests used:
Conditions in all cases: treatment: drug alone; 5 days
[1] = system: A498; test: GI50, drug alone; higher = less potent
Experimental: (§1)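 Primary HTS: 8 RCC cell lines treated with 8 doses (up to 10 uM) of each library drug alone for 5 days; viability read by CellTiter-Glo and normalised to DMSO. GI50 was fitted with XLfit (4-parameter), AUC is the area under the dose-response curve, and minimum viability is the lowest fraction of DMSO viability across doses.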

[2] = system: 769-P; test: GI50, drug alone; higher = less potent
Experimental: as §1

[3] = system: SN12C; test: GI50, drug alone; higher = less potent
Experimental: as §1

[4] = system: ACHN; test: GI50, drug alone; higher = less potent
Experimental: as §1

[5] = system: 786-O; test: GI50, drug alone; higher = less potent
Experimental: as §1

[6] = system: UO-31; test: GI50, drug alone; higher = less potent
Experimental: as §1

[7] = system: CAKI-1; test: GI50, drug alone; higher = less potent
Experimental: as §1

[8] = system: TK-10; test: GI50, drug alone; higher = less potent
Experimental: as §1

[9] = system: A498; test: minimum viability across doses, drug alone, relative to DMSO (fraction); higher = less growth inhibition
Experimental: as §1

[10] = system: 769-P; test: as above
Experimental: as §1

[11] = system: SN12C; test: as above
Experimental: as §1

[12] = system: ACHN; test: as above
Experimental: as §1

[13] = system: 786-O; test: as above
Experimental: as §1

[14] = system: UO-31; test: as above
Experimental: as §1

[15] = system: CAKI-1; test: as above
Experimental: as §1

[16] = system: TK-10; test: as above
Experimental: as §1

[17] = system: A498; test: AUC of dose-response viability curve, drug alone (arbitrary (AUC of normalised viability)); higher = less growth inhibition
Experimental: as §1

[18] = system: 769-P; test: as above
Experimental: as §1

[19] = system: SN12C; test: as above
Experimental: as §1

[20] = system: ACHN; test: as above
Experimental: as §1

[21] = system: 786-O; test: as above
Experimental: as §1

[22] = system: UO-31; test: as above
Experimental: as §1

[23] = system: CAKI-1; test: as above
Experimental: as §1

[24] = system: TK-10; test: as above
Experimental: as §1

Cc1ccc(NC(=O)c2cccc(N(C)C)c2)cc1NC(=O)c1ccc(O)cc1
GI50, drug alone [1]: > 10 µM
GI50, drug alone [2]: > 10 µM
GI50, drug alone [3]: > 10 µM
GI50, drug alone [4]: > 10 µM
GI50, drug alone [5]: > 10 µM
GI50, drug alone [6]: > 10 µM
GI50, drug alone [7]: > 10 µM
GI50, drug alone [8]: > 10 µM
minimum viability across doses [9]: 0.864
minimum viability across doses [10]: 0.92
minimum viability across doses [11]: 0.845
minimum viability across doses [12]: 0.816
minimum viability across doses [13]: 0.535
minimum viability across doses [14]: 0.895
minimum viability across doses [15]: 0.984
minimum viability across doses [16]: 0.677
AUC of dose-response viability curve [17]: 4.56
AUC of dose-response viability curve [18]: 3.39
AUC of dose-response viability curve [19]: 3.31
AUC of dose-response viability curve [20]: 3.32
AUC of dose-response viability curve [21]: 2.5
AUC of dose-response viability curve [22]: 4.13
AUC of dose-response viability curve [23]: 3.64
AUC of dose-response viability curve [24]: 2.59

CNC(=O)Nc1ccc(-c2nc(N3CC4CCC(C3)O4)c3cnn(C4CCC5(CC4)OCCO5)c3n2)cc1
GI50, drug alone [1]: 0.23 µM
GI50, drug alone [2]: 0.122 µM
GI50, drug alone [3]: 0.0971 µM
GI50, drug alone [4]: 0.0587 µM
GI50, drug alone [5]: 0.0414 µM
GI50, drug alone [6]: 0.0343 µM
GI50, drug alone [7]: 0.0567 µM
GI50, drug alone [8]: 0.0812 µM
minimum viability across doses [9]: 0.09
minimum viability across doses [10]: 0.101
minimum viability across doses [11]: 0.126
minimum viability across doses [12]: 0.0487
minimum viability across doses [13]: 0.00279
minimum viability across doses [14]: 0.00242
minimum viability across doses [15]: 0.042
minimum viability across doses [16]: 0.0905
AUC of dose-response viability curve [17]: 2.28
AUC of dose-response viability curve [18]: 1.66
AUC of dose-response viability curve [19]: 1.64
AUC of dose-response viability curve [20]: 1.4
AUC of dose-response viability curve [21]: 1.25
AUC of dose-response viability curve [22]: 1.01
AUC of dose-response viability curve [23]: 1.31
AUC of dose-response viability curve [24]: 1.52

Nc1ccc(C(=O)Nc2cccc(-c3nc(N4CCOCC4)c4oc5ncccc5c4n3)c2)cn1
GI50, drug alone [1]: > 10 µM
GI50, drug alone [2]: 3.14 µM
GI50, drug alone [3]: 8.23 µM
GI50, drug alone [4]: 1.87 µM
GI50, drug alone [5]: 1.11 µM
GI50, drug alone [6]: 8.08 µM
GI50, drug alone [7]: 1.19 µM
GI50, drug alone [8]: 1.7 µM
minimum viability across doses [9]: 0.527
minimum viability across doses [10]: 0.0884
minimum viability across doses [11]: 0.46
minimum viability across doses [12]: 0.207
minimum viability across doses [13]: 0.00412
minimum viability across doses [14]: 0.0163
minimum viability across doses [15]: 0.153
minimum viability across doses [16]: 0.11
AUC of dose-response viability curve [17]: 4.39
AUC of dose-response viability curve [18]: 3.04
AUC of dose-response viability curve [19]: 3
AUC of dose-response viability curve [20]: 2.63
AUC of dose-response viability curve [21]: 2.4
AUC of dose-response viability curve [22]: 5.57
AUC of dose-response viability curve [23]: 2.63
AUC of dose-response viability curve [24]: 2.64

C[C@@H]1CCN(C(=O)CC#N)C[C@@H]1N(C)c1ncnc2[nH]ccc12
GI50, drug alone [1]: > 10 µM
GI50, drug alone [2]: > 10 µM
GI50, drug alone [3]: > 10 µM
GI50, drug alone [4]: > 10 µM
GI50, drug alone [5]: > 10 µM
GI50, drug alone [6]: > 10 µM
GI50, drug alone [7]: > 10 µM
GI50, drug alone [8]: > 10 µM
minimum viability across doses [9]: 0.909
minimum viability across doses [10]: 0.988
minimum viability across doses [11]: 0.935
minimum viability across doses [12]: 0.893
minimum viability across doses [13]: 0.804
minimum viability across doses [14]: 0.876
minimum viability across doses [15]: 0.98
minimum viability across doses [16]: 0.806
AUC of dose-response viability curve [17]: 3.8
AUC of dose-response viability curve [18]: 3.63
AUC of dose-response viability curve [19]: 3.63
AUC of dose-response viability curve [20]: 3.3
AUC of dose-response viability curve [21]: 3.54
AUC of dose-response viability curve [22]: 4.6
AUC of dose-response viability curve [23]: 3.66
AUC of dose-response viability curve [24]: 3.14

COc1cc2c(Nc3ccc(NC(=O)c4ccccc4)cc3)ncnc2cc1OCCCN1CCOCC1
GI50, drug alone [1]: > 10 µM
GI50, drug alone [2]: 5.72 µM
GI50, drug alone [3]: > 10 µM
GI50, drug alone [4]: 3.42 µM
GI50, drug alone [5]: 2 µM
GI50, drug alone [6]: 9.01 µM
GI50, drug alone [7]: 2.63 µM
GI50, drug alone [8]: 4.2 µM
minimum viability across doses [9]: 0.722
minimum viability across doses [10]: 0.24
minimum viability across doses [11]: 0.537
minimum viability across doses [12]: 0.152
minimum viability across doses [13]: 0.00931
minimum viability across doses [14]: 0.175
minimum viability across doses [15]: 0.108
minimum viability across doses [16]: 0.243
AUC of dose-response viability curve [17]: 4.49
AUC of dose-response viability curve [18]: 3.12
AUC of dose-response viability curve [19]: 2.89
AUC of dose-response viability curve [20]: 2.57
AUC of dose-response viability curve [21]: 2.52
AUC of dose-response viability curve [22]: 4.2
AUC of dose-response viability curve [23]: 3.03
AUC of dose-response viability curve [24]: 2.86

C[C@@H](N)[C@H]1CC[C@H](C(=O)Nc2ccncc2)CC1.Cl.Cl
GI50, drug alone [1]: > 10 µM
GI50, drug alone [2]: > 10 µM
GI50, drug alone [3]: > 10 µM
GI50, drug alone [4]: > 10 µM
GI50, drug alone [5]: > 10 µM
GI50, drug alone [6]: > 10 µM
GI50, drug alone [7]: > 10 µM
GI50, drug alone [8]: > 10 µM
minimum viability across doses [9]: 0.87
minimum viability across doses [10]: 0.895
minimum viability across doses [11]: 0.909
minimum viability across doses [12]: 0.908
minimum viability across doses [13]: 0.802
minimum viability across doses [14]: 0.96
minimum viability across doses [15]: 0.859
minimum viability across doses [16]: 0.887
AUC of dose-response viability curve [17]: 3.58
AUC of dose-response viability curve [18]: 3.37
AUC of dose-response viability curve [19]: 3.55
AUC of dose-response viability curve [20]: 3.73
AUC of dose-response viability curve [21]: 3.36
AUC of dose-response viability curve [22]: 4.59
AUC of dose-response viability curve [23]: 3.45
AUC of dose-response viability curve [24]: 3.46

CC1CCN(C(=O)CC#N)C[C@@H]1N(C)c1ncnc2[nH]ccc12.O=C(O)CC(O)(CC(=O)O)C(=O)O (stereo in doubt)
GI50, drug alone [1]: > 10 µM
GI50, drug alone [2]: > 10 µM
GI50, drug alone [3]: > 10 µM
GI50, drug alone [4]: > 10 µM
GI50, drug alone [5]: > 10 µM
GI50, drug alone [6]: > 10 µM
GI50, drug alone [7]: > 10 µM
GI50, drug alone [8]: > 10 µM
minimum viability across doses [9]: 0.817
minimum viability across doses [10]: 0.938
minimum viability across doses [11]: 0.854
minimum viability across doses [12]: 0.771
minimum viability across doses [13]: 0.614
minimum viability across doses [14]: 0.897
minimum viability across doses [15]: 0.918
minimum viability across doses [16]: 0.797
AUC of dose-response viability curve [17]: 3.54
AUC of dose-response viability curve [18]: 3.66
AUC of dose-response viability curve [19]: 3.23
AUC of dose-response viability curve [20]: 3.18
AUC of dose-response viability curve [21]: 2.72
AUC of dose-response viability curve [22]: 4.05
AUC of dose-response viability curve [23]: 3.73
AUC of dose-response viability curve [24]: 3.16

O=C1NC(=O)C(=Cc2ccc(-c3ccc(F)cc3)o2)S1 (stereo in doubt)
GI50, drug alone [1]: > 10 µM
GI50, drug alone [2]: > 10 µM
GI50, drug alone [3]: > 10 µM
GI50, drug alone [4]: > 10 µM
GI50, drug alone [5]: > 10 µM
GI50, drug alone [6]: 7.95 µM
GI50, drug alone [7]: > 10 µM
GI50, drug alone [8]: > 10 µM
minimum viability across doses [9]: 0.852
minimum viability across doses [10]: 0.859
minimum viability across doses [11]: 0.82
minimum viability across doses [12]: 0.871
minimum viability across doses [13]: 0.566
minimum viability across doses [14]: 0.311
minimum viability across doses [15]: 0.882
minimum viability across doses [16]: 0.81
AUC of dose-response viability curve [17]: 3.71
AUC of dose-response viability curve [18]: 3.33
AUC of dose-response viability curve [19]: 3.23
AUC of dose-response viability curve [20]: 3.47
AUC of dose-response viability curve [21]: 2.4
AUC of dose-response viability curve [22]: 3.29
AUC of dose-response viability curve [23]: 3.34
AUC of dose-response viability curve [24]: 3.07

CO[C@H]1C[C@H]2CC[C@@H](C)[C@@](O)(O2)C(=O)C(=O)N2CCCC[C@H]2C(=O)O[C@H]([C@H](C)C[C@@H]2CC[C@H](OP(C)(C)=O)[C@H](OC)C2)CC(=O)[C@H](C)/C=C(\C)[C@@H](O)[C@@H](OC)C(=O)[C@H](C)C[C@H](C)/C=C/C=C/C=C/1C (stereo in doubt) [Deforolimus (Ridaforolimus)]
GI50, drug alone [1]: > 10 µM
GI50, drug alone [2]: > 10 µM
GI50, drug alone [3]: 0.454 µM
GI50, drug alone [4]: 0.559 µM
GI50, drug alone [5]: < 0.003 µM
GI50, drug alone [6]: 0.00775 µM
GI50, drug alone [7]: 1.07 µM
GI50, drug alone [8]: > 10 µM
minimum viability across doses [9]: 0.636
minimum viability across doses [10]: 0.607
minimum viability across doses [11]: 0.443
minimum viability across doses [12]: 0.409
minimum viability across doses [13]: 0.271
minimum viability across doses [14]: 0.0878
minimum viability across doses [15]: 0.456
minimum viability across doses [16]: 0.542
AUC of dose-response viability curve [17]: 2.6
AUC of dose-response viability curve [18]: 2.66
AUC of dose-response viability curve [19]: 2.23
AUC of dose-response viability curve [20]: 1.98
AUC of dose-response viability curve [21]: 1.24
AUC of dose-response viability curve [22]: 0.965
AUC of dose-response viability curve [23]: 2.1
AUC of dose-response viability curve [24]: 2.42
